# From US10016382B2, “Method for decreasing skeletal muscle damage and/or oxidative stress in mammals” (LONZA INC., priority 2014, dated 2018)
# Values joined by “and” are separate entries in the source; they are usually repeats but may differ in a detail not shown here. Equal entries are not always repeated.
# Key:
# [1] = Daily food consumption, Example 1; type: in vivo, dog; details: Ex.1, 250 mg/d; for Daily Food Intake: mean ± SEM
# Procedure: Experimental Design: Forty Labrador Retrievers (labs) ranging in age from 1 to 3.5 years were incorporated into a two dietary treatment study. The two dietary treatments were based on feeding the test dogs the same low L-carnitine diet but adding 250 mg per day of L-carnitine to the L-carnitine group. Each of the L-carnitine dogs received the daily 250 mg of L-carnitine mixed with an additional 3.75 g sugar. The control dogs received 4 g of sugar each day. Twenty labs of equal gender, age, excitement level, frame size, body weight and genetic background were utilized for each of the two treatments. The labs utilized for the nutrition study were from a minimum of 6 different bitches. The lean body mass of the 40 test dogs was determined by scanning with the DEXA and the final key component utilized to assure equal groups. Prior to the start of the study, the labs were acclimated to the experimental diets for a minimum of 10 days. The labs were weighed at the beginning of the 90 day study and weighed every two weeks throughout the study. Feed consumption was determined daily by weighing feed provided and feed refusals. The quantity of food provided each dog on a daily basis was adjusted based on maintaining a minimum initial starting body weight throughout the study. The dog food was provided by Lonza Inc. and was equal to the minimum guaranteed analysis of Gold N Pro (MFA of Missouri) that the performance dogs had been consuming prior to the start of the study (Table 1).
# Labrador Retrievers = assay: Activity by Actical monitors, short (sprint) runs, Example 1; type: in vivo, dog; details: Ex.1, 250 mg/d; for Activity short runs, Least Sq Mean: average of weekly short runs over 13 wk, mixed model
# Excerpt: Each test dog wore an Actical activity monitor from Philips Respironics on a collar for the short higher intensity runs and also wore an Actical activity monitor for the weekly longer endurance runs. The activity data was downloaded into spread sheets along with each dogs identity. Twenty four hours after each long run during the 13 wk running program each of the dogs were scored by kennel staff for soreness or any type of lameness The exercise program was decreased in a tapering program during wk 11 and 12 to allow the dogs to rest for the final long run completed on wk 13. Pre-run serum samples from each test dog was taken 24 hr before the last endurance run. The heart rate and basal body temperature was determined for each test dog prior to the last long endurance run. Exercise Regimen: Each group of dogs were put through two different types of exercise programs on a weekly basis. The exercise regimen consisted of both sprint (short runs) and endurance (long runs) type work during the 90 day period. Each group of dogs were put through a simulated amount of work that would be equal to competing in an AKC Junior Hunt Test (American […] Club) and also once a week the dogs were put through a simulated endurance run. Each group of test dogs ran the AKC Hunt Test workout 26 times during the 13 wk study which was 2 times per week. During each week, each group ran the test 2 times with 1 day rest between runs. The AKC Hunt Test workout during the initial week amounted to two days of 6 consecutive sprint type retrieves for a minimum of 100 yd each way making a total of 1200 yd per day or 2400 yd per wk. The dogs brought back a bumper (equivalent to a duck or mark) to the handler during the exercise. […] The length of time involved in the intense exercise simulating the AKC Hunt Test was approximately 10 to 15 minutes per dog each of the short run days and was equal for both treatments. The rest time between retrieves (sprints) in a set during the simulated weekly AKC Hunt Test was equal for all dogs. Performance and Recovery Time: An Actical monitor (Philips Respironics) was worn around the neck of each dog on a collar and utilized to evaluate the amount of movement (measured total movements and intensity) for each dog for the purpose of evaluating equal work between treatments and also to evaluate the individual work intensity while completing the daily retrieves. Each dog wore the Actical monitor for each long run and wore the Actical monitor for the final 15 mile run. The Actical monitor data was downloaded to a computer for evaluation. Statistical Methods: GraphPad Prism 6.0 was used to compare means between groups for run time, food intake, body weight, and changes in blood chemistry using an unpaired t-test. Results were considered significant if a p-value of 0.05 was obtained. JMP 10.0.2 was used to create a mixed model for long runs, short runs, body composition, and blood chemistry.
structure (smiles),measurement,setting,value
C[N+](C)(C)C[C@H](O)CC(=O)[O-] [L-carnitine],Daily Food Intake,[1]; Week 2,723 ± 26 n = 20 g
same,Daily Food Intake,[1]; Week 4,636 ± 30 n = 20 g
same,Daily Food Intake,[1]; Week 5,639 ± 27 n = 20 g
same,Daily Food Intake,[1]; Week 6,651 ± 26 n = 20 g
same,Daily Food Intake,[1]; Week 7,626 ± 24 n = 20 g
same,Daily Food Intake,[1]; Week 8,626 ± 24 n = 20 g
same,Daily Food Intake,[1]; Week 9,622 ± 26 n = 20 g
same,Daily Food Intake,[1]; Week 10,570 ± 25 n = 20 g
same,Daily Food Intake,[1]; Week 11,577 ± 24 n = 20 g
same,Daily Food Intake,[1]; Week 13,555 ± 20 n = 20 g
same,Food consumption vs control,[1]; over the entire 13 wk period,not significantly different
same,Daily Food Intake,[1]; overall Average of 13 wk study,626 g and 626 ± 24 n = 20 g
same,"Activity short runs, APM/lb Mean","Labrador Retrievers; Week 3, both sexes",1479 Movements/Mile/LB BW
same,"Activity short runs, APM/lb Mean","Labrador Retrievers; Week 3, females",1636 Movements/Mile/LB BW
same,"Activity short runs, APM/lb Mean","Labrador Retrievers; Week 3, males",1338 Movements/Mile/LB BW
same,"Activity short runs, APM/lb Mean","Labrador Retrievers; Week 4, both sexes",1402 Movements/Mile/LB BW
same,"Activity short runs, APM/lb Mean","Labrador Retrievers; Week 4, females",1608 Movements/Mile/LB BW
same,"Activity short runs, APM/lb Mean","Labrador Retrievers; Week 4, males",1234 Movements/Mile/LB BW
same,"Activity short runs, APM/lb Mean","Labrador Retrievers; Week 5, both sexes",1314 Movements/Mile/LB BW
same,"Activity short runs, APM/lb Mean","Labrador Retrievers; Week 5, females",1362 Movements/Mile/LB BW
same,"Activity short runs, APM/lb Mean","Labrador Retrievers; Week 5, males",1275 Movements/Mile/LB BW
same,"Activity short runs, APM/lb Mean","Labrador Retrievers; Week 6, both sexes",1375 Movements/Mile/LB BW
same,"Activity short runs, APM/lb Mean","Labrador Retrievers; Week 6, females",1340 Movements/Mile/LB BW
same,"Activity short runs, APM/lb Mean","Labrador Retrievers; Week 6, males",1403 Movements/Mile/LB BW
same,"Activity short runs, APM/lb Mean","Labrador Retrievers; Week 7, both sexes",1380 Movements/Mile/LB BW
same,"Activity short runs, APM/lb Mean","Labrador Retrievers; Week 7, females",1347 Movements/Mile/LB BW
same,"Activity short runs, APM/lb Mean","Labrador Retrievers; Week 7, males",1407 Movements/Mile/LB BW
same,"Activity short runs, APM/lb Mean","Labrador Retrievers; Week 8, both sexes",1249 Movements/Mile/LB BW
same,"Activity short runs, APM/lb Mean","Labrador Retrievers; Week 8, females",1330 Movements/Mile/LB BW
same,"Activity short runs, APM/lb Mean","Labrador Retrievers; Week 8, males",1183 Movements/Mile/LB BW
same,"Activity short runs, APM/lb Mean","Labrador Retrievers; Week 9, both sexes",1234 Movements/Mile/LB BW
same,"Activity short runs, APM/lb Mean","Labrador Retrievers; Week 9, females",1388 Movements/Mile/LB BW
same,"Activity short runs, APM/lb Mean","Labrador Retrievers; Week 9, males",1108 Movements/Mile/LB BW
same,"Activity short runs, APM/lb Mean","Labrador Retrievers; Week 10, both sexes",1114 Movements/Mile/LB BW
same,"Activity short runs, APM/lb Mean","Labrador Retrievers; Week 10, females",1222 Movements/Mile/LB BW
same,"Activity short runs, APM/lb Mean","Labrador Retrievers; Week 10, males",1026 Movements/Mile/LB BW
same,"Activity short runs, APM/lb Mean","Labrador Retrievers; Week 11, both sexes",1111 Movements/Mile/LB BW
same,"Activity short runs, APM/lb Mean","Labrador Retrievers; Week 11, females",1128 Movements/Mile/LB BW
same,"Activity short runs, APM/lb Mean","Labrador Retrievers; Week 11, males",1098 Movements/Mile/LB BW
same,"Activity short runs, APM/lb Mean","Labrador Retrievers; Week 12, both sexes",2500 Movements/Mile/LB BW
same,"Activity short runs, APM/lb Mean","Labrador Retrievers; Week 12, females",2804 Movements/Mile/LB BW
same,"Activity short runs, APM/lb Mean","Labrador Retrievers; Week 12, males",2251 Movements/Mile/LB BW
same,"Activity short runs, APM/lb Mean","Labrador Retrievers; Week 13, both sexes",1741 Movements/Mile/LB BW
same,"Activity short runs, APM/lb Mean","Labrador Retrievers; Week 13, females",1661 Movements/Mile/LB BW
same,"Activity short runs, APM/lb Mean","Labrador Retrievers; Week 13, males",1806 Movements/Mile/LB BW
same,"Activity short runs, Least Sq Mean",Labrador Retrievers; both sexes,1451 Movements/Mile/LB BW and 1451.0357 Movements/Mile/LB BW
same,"Activity short runs, Least Sq Mean",Labrador Retrievers; females,1522 Movements/Mile/LB BW and 1528.6226 Movements/Mile/LB BW
same,"Activity short runs, Least Sq Mean",Labrador Retrievers; males,1373.4487 Movements/Mile/LB BW
